# Patent US20230107642A1 (Erasca, Inc., priority 2020, published 2023)
# Target: T1, Cys12 of the KRAS 4B G12C protein (Homo sapiens, UniProt P01116, G12C)
# T1 construct: This protein contained 188 amino acids in total, including an N-terminal 6-Histidine tag; made in house; host or cells: E. coli BL21
# Experiment: In vitro covalent adduct formation (CAF) assay, LC-MS intact mass
# Assay type: binding
# Details: 10 uM compound, 60 min
# Method in brief: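 Percent covalent modification from intact-mass LC-MS, by relative free versus adducted protein (adducts within 1 Da of expected mass). Reaction: 10 μM compound with 5 μM E. coli-expressed, GDP-exchanged KRAS 4B G12C in TBS pH 7.4, 4% DMSO, 1 h at 22° C.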
row,Compound,% CAF 10 uM @ 60 min [%]
1,"C=CC(=O)N1[C@H](C)CN(c2nc(=O)n3c4c(c(-c5ccc(F)cc5F)c(C(F)(F)F)cc24)SC[C@@H]3CN2CCN(CC)CC2)C[C@@H]1C (atropisomer, axis not shown) [Example 1330, (3S,10S)-7-((3S,5R)-4-acryloyl-3,5-dimethylpiperazin-1-yl)-10-(2,4-difluorophenyl)-3-((4-ethylpiperazin-1-yl)methyl)-9-(trifluoromethyl)-2,3-dihydro-5H-[1,4]thiazino[2,3,4-ij]quinazolin-5-one]",85
2,C=CC(=O)N1CCN(c2nc(=O)n3c4c(c(-c5cc(Cl)c(F)cc5F)c(C(F)(F)F)cc24)SC[C@@H]3CN2C[C@@H]3C[C@H]2CO3)CC1 [Example 1311],95.4
3,"C=CC(=O)N1CCN(c2nc(=O)n3c4c(c(-c5c(F)ccc6cnn(C)c56)c(C(F)(F)F)cc24)SC[C@@H]3COC)CC1 (atropisomer, axis not shown) [Example 1416, (3S,10R)-7-(4-acryloylpiperazin-1-yl)-10-(6-fluoro-1-methyl-1H-indazol-7-yl)-3-(methoxymethyl)-9-(trifluoromethyl)-2,3-dihydro-5H-[1,4]thiazino[2,3,4-ij]quinazolin-5-one]",71.3
4,"C=CC(=O)N1C2CCC1CN(c1nc(=O)n3c4c(c(-c5cc(Cl)c(F)cc5F)c(C(F)(F)F)cc14)SC[C@@H]3COC)C2 [Example 1394, (3S,10R)-7-((1R,5S)-8-acryloyl-3,8-diazabicyclo[3.2.1]octan-3-yl)-10-(5-chloro-2,4-difluorophenyl)-3-(methoxymethyl)-9-(trifluoromethyl)-2,3-dihydro-5H-[1,4]thiazino[2,3,4-ij]quinazolin-5-one]",93.5
5,"C=CC(=O)N1CCN(c2nc(=O)n3c4c(c(-c5ccc(F)cc5)c(C(F)(F)F)cc24)SC[C@@H]3CN2C[C@@H]3C[C@H]2CO3)CC1 [Example 1350, (S)-3-(((1S,4S)-2-oxa-5-azabicyclo[2.2.1]heptan-5-yl)methyl)-7-(4-acryloylpiperazin-1-yl)-10-(4-fluorophenyl)-9-(trifluoromethyl)-2,3-dihydro-5H-[1,4]thiazino[2,3,4-ij]quinazolin-5-one]",81.3
6,"C=CC(=O)N1[C@H](C)CN(c2nc(=O)n3c4c(c(-c5cc(Br)c(F)cc5F)c(C(F)(F)F)cc24)SCC2(COC2)C3)C[C@@H]1C [Example 1452, 8′-((3S,5R)-4-acryloyl-3,5-dimethylpiperazin-1-yl)-11′-(5-bromo-2,4-difluorophenyl)-10′-(trifluoromethyl)-2′H,4′H,6′H-spiro[oxetane-3,3′-[1,4]thiazepino[2,3,4-ij]quinazolin]-6′-one]",97
7,"C=CC(=O)N1CCN(c2nc(=O)n3c4c(c(-c5ccc(F)cc5F)c(C(F)(F)F)cc24)SC[C@@H]3COCOC)CC1 (atropisomer, axis not shown) [Example 1367, (3S,10R)-7-(4-acryloylpiperazin-1-yl)-10-(2,4-difluorophenyl)-3-((methoxymethoxy)methyl)-9-(trifluoromethyl)-2,3-dihydro-5H-[1,4]thiazino[2,3,4-ij]quinazolin-5-one]",92.4
8,"C=CC(=O)N1[C@H](C)CN(c2nc(=O)n3c4c(c(-c5c(F)cc(F)cc5F)c(C(F)(F)F)cc24)SC[C@@H]3COC)C[C@@H]1C [Example 1374, (S)-7-((3S,5R)-4-acryloyl-3,5-dimethylpiperazin-1-yl)-3-(methoxymethyl)-9-(trifluoromethyl)-10-(2,4,6-trifluorophenyl)-2,3-dihydro-5H-[1,4]thiazino[2,3,4-ij]quinazolin-5-one]",88.5

# Results, then the compound that gave them:
row,% CAF 10 uM @ 60 min [%],Compound
1,95.4,"C=CC(=O)N1[C@H](C)CN(c2nc(=O)n3c4c(c(-c5ccc(F)cc5F)c(C(F)(F)F)cc24)SC[C@@H]3CN2CCN(CC)CC2)C[C@@H]1C (atropisomer, axis not shown) [Example 1329, (3S,10R)-7-((3S,5R)-4-acryloyl-3,5-dimethylpiperazin-1-yl)-10-(2,4-difluorophenyl)-3-((4-ethylpiperazin-1-yl)methyl)-9-(trifluoromethyl)-2,3-dihydro-5H-[1,4]thiazino[2,3,4-ij]quinazolin-5-one]"
2,76,"C=CC(=O)N1C[C@H](C)N(c2nc(=O)n3c4c(c(-c5cc(C(OC)OC)c(F)cc5F)c(C(F)(F)F)cc24)SCC2(COC2)C3)C[C@H]1C [Example 1426, 8′-((2S,5R)-4-acryloyl-2,5-dimethylpiperazin-1-yl)-11′-(5-(dimethoxymethyl)-2,4-difluorophenyl)-10′-(trifluoromethyl)-2′H,4′H,6′H-spiro[oxetane-3,3′-[1,4]thiazepino[2,3,4-ij]quinazolin]-6′-one]"
3,73,"C=CC(=O)N1[C@H](C)CN(c2nc(=O)n3c4c(c(-c5cc(Cl)c(F)cc5F)c(C(F)(F)F)cc24)SC[C@@H]3CN2CC[C@H](F)C2)C[C@@H]1C (atropisomer, axis not shown) [Example 1439, (3S,10R)-7-((3S,5R)-4-acryloyl-3,5-dimethylpiperazin-1-yl)-10-(5-chloro-2,4-difluorophenyl)-3-(((S)-3-fluoropyrrolidin-1-yl)methyl)-9-(trifluoromethyl)-2,3-dihydro-5H-[1,4]thiazino[2,3,4-ij]quinazolin-5-one]"
4,88.4,"C=CC(=O)N1C[C@H](C)N(c2nc(=O)n3c4c(c(-c5ccc(F)c(Cl)c5)c(C(F)(F)F)cc24)SC[C@@H]3CN2CCN(CC)CC2)C[C@H]1C [Example 1380, (S)-7-((2S,5R)-4-acryloyl-2,5-dimethylpiperazin-1-yl)-10-(3-chloro-4-fluorophenyl)-3-((4-ethylpiperazin-1-yl)methyl)-9-(trifluoromethyl)-2,3-dihydro-5H-[1,4]thiazino[2,3,4-ij]quinazolin-5-one]"
5,72,"C=CC(=O)N1[C@H](C)CN(c2nc(=O)n3c4c(c(-c5ccc(F)cc5F)c(C(F)(F)F)cc24)SC[C@@H]3CN2CC[C@H](F)C2)C[C@@H]1C (atropisomer, axis not shown) [Example 1428, (3S,10S)-7-((3S,5R)-4-acryloyl-3,5-dimethylpiperazin-1-yl)-10-(2,4-difluorophenyl)-3-(((S)-3-fluoropyrrolidin-1-yl)methyl)-9-(trifluoromethyl)-2,3-dihydro-5H-[1,4]thiazino[2,3,4-ij]quinazolin-5-one]"
6,85.5,"C=CC(=O)N1[C@H](C)CN(c2nc(=O)n3c4c(c(-c5ccc(F)c(Cl)c5)c(C(F)(F)F)cc24)SC[C@H](N2CCOCC2)C3)C[C@@H]1C [Example 1336, (R)-8-((3S,5R)-4-acryloyl-3,5-dimethylpiperazin-1-yl)-11-(3-chloro-4-fluorophenyl)-3-morpholino-10-(trifluoromethyl)-3,4-dihydro-2H,6H-[1,4]thiazepino[2,3-4-ij]quinazolin-6-one]"
7,96.4,"C=CC(=O)N1[C@H](C)CN(c2nc(=O)n3c4c(c(-c5ccc(F)c(Cl)c5)c(C(F)(F)F)cc24)SCC2(COC2)C3)C[C@@H]1C [Example 1353, 8′-((3S,5R)-4-acryloyl-3,5-dimethylpiperazin-1-yl)-11′-(3-chloro-4-fluorophenyl)-10′-(trifluoromethyl)-2′H,4′H,6′H-spiro[oxetane-3,3′-[1,4]thiazepino[2,3,4-ij]quinazolin]-6′-one]"
8,78.9,"C=CC(=O)N1[C@H](C)CN(c2nc(=O)n3c4c(c(-c5cc(Cl)c(F)cc5F)c(C(F)(F)F)cc24)SC[C@@H]3CN2C[C@@H]3C[C@H]2CO3)C[C@@H]1C [Example 1302, (3S)-3-(((1S,4S)-2-oxa-5-azabicyclo[2.2.1]heptan-5-yl)methyl)-7-((3S,5R)-4-acryloyl-3,5-dimethylpiperazin-1-yl)-10-(5-chloro-2,4-difluorophenyl)-9-(trifluoromethyl)-2,3-dihydro-5H-[1,4]thiazino[2,3,4-ij]quinazolin-5-one]"

# Same assay, conditions: 10 uM compound, 60 min incubation
row,% CAF 10 uM @ 60 min [%],Compound
1,93.9,"C=CC(=O)N1[C@H](C)CN(c2nc(=O)n3c4c(c(-c5cc(Cl)c(F)cc5F)c(C(F)(F)F)cc24)SC[C@@H]3COC)C[C@@H]1C (single isomer, unassigned) [Example 1140]"

# Same assay, conditions: 10 μM compound, after 1 hour
row,CAF (% after 1 hour) [%],Compound
1,95,"C=CC(=O)N1[C@H](C)CN(c2nc(=O)n3c4c(c(-c5cc(Br)c(F)cc5F)c(C(F)(F)F)cc24)SC[C@@H](OC)C3)C[C@@H]1C [Example 1239, (3S)-8-((3S,5R)-4-acryloyl-3,5-dimethylpiperazin-1-yl)-11-(5-bromo-2,4-difluorophenyl)-3-methoxy-10-(trifluoromethyl)-3,4-dihydro-2H,6H-[1,4]thiazepino[2,3,4-ij]quinazolin-6-one]"
2,97,"C=CC(=O)N1CCN(c2nc(=O)n3c4c(c(-c5cc(Cl)c(F)cc5F)c(C(F)(F)F)cc24)SC[C@@H](OC)C3)[C@@H]2CS(=O)(=O)C[C@@H]21 [Example 1211, (3S)-8-((4aR,7aS)-4-acryloyl-6,6-dioxidohexahydrothieno[3,4-b]pyrazin-1(2H)-yl)-11-(5-chloro-2,4-difluorophenyl)-3-methoxy-10-(trifluoromethyl)-3,4-dihydro-2H,6H-[1,4]thiazepino[2,3,4-ij]quinazolin-6-one]"

# Same assay, conditions: after 60 min
row,CAF (% binding after 60 min) [%],Compound
1,92,"C=CC(=O)N1CCN(c2nc(=O)n3c4c(c(-c5cc(Cl)c(F)cc5F)c(C(F)(F)F)cc24)SC[C@H](OCOC)C3)CC1 [Example 1008, (3R)-8-(4-acryloylpiperazin-1-yl)-11-(5-chloro-2,4-difluorophenyl)-3-(methoxymethoxy)-10-(trifluoromethyl)-3,4-dihydro-2H,6H-[1,4]thiazepino[2,3,4-ij]quinazolin-6-one]"
